Assay results reported in patent US10670605B2, “Cysteine reactive probes and uses thereof” (The Scripps Research Institute, priority 2015, dated 2020).

What was measured:
Assay in all cases: Competitive isoTOP-ABPP in situ (fragment-treated cells)
Type in all cases: cell-based
[1] = target: T1, cysteines in MDA-MB-231 and Ramos cells (Homo sapiens, UniProt P21980)
T1 sequence (P21980 1-687): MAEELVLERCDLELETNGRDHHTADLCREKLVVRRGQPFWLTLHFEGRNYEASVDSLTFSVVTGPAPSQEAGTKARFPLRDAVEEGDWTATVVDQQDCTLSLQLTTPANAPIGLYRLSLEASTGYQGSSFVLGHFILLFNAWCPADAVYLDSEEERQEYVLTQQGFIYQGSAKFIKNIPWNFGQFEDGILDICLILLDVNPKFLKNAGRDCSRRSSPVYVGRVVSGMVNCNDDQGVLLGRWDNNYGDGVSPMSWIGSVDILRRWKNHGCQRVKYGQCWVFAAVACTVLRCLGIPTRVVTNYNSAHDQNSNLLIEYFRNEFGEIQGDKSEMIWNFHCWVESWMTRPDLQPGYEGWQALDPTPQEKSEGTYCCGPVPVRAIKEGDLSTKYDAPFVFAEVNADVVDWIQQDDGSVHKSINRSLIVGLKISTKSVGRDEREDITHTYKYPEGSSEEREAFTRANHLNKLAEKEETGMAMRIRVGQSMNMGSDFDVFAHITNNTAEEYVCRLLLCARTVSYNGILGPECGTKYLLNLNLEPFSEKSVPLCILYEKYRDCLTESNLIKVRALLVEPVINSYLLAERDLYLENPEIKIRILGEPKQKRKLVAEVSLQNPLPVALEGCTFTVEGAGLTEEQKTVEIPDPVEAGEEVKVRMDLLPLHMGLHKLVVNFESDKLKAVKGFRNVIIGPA

[2] = target: cysteines in MDA-MB-231 and Ramos cells (Homo sapiens, UniProt P12268)
[3] = target: T2, cysteines in MDA-MB-231 and Ramos cells (Homo sapiens, UniProt Q9UMS0)
T2 sequence (Q9UMS0 10-254): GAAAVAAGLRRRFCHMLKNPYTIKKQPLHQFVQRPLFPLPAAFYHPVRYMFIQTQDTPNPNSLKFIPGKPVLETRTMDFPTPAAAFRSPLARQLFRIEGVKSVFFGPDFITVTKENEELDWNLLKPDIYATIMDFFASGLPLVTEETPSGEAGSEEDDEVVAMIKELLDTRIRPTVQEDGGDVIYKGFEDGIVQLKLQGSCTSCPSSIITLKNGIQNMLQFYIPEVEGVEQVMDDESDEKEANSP

[4] = target: T3, cysteines in MDA-MB-231 and Ramos cells (Homo sapiens, UniProt Q15233)
T3 sequence (Q15233 1-471): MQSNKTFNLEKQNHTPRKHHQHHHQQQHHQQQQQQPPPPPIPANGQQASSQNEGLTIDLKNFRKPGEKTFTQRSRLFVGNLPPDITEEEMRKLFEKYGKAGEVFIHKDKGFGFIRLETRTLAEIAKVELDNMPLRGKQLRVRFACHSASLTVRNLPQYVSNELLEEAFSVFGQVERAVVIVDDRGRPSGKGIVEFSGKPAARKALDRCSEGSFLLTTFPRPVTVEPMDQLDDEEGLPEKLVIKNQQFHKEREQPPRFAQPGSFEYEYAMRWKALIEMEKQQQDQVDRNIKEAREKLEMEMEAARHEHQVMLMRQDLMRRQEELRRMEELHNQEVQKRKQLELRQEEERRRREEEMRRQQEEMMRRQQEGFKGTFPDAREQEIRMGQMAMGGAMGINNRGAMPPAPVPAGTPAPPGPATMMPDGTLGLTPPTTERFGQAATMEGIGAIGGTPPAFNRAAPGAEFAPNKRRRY

[5] = target: T4, cysteines in MDA-MB-231 and Ramos cells (Homo sapiens, UniProt P49588)
T4 sequence (P49588 1-968): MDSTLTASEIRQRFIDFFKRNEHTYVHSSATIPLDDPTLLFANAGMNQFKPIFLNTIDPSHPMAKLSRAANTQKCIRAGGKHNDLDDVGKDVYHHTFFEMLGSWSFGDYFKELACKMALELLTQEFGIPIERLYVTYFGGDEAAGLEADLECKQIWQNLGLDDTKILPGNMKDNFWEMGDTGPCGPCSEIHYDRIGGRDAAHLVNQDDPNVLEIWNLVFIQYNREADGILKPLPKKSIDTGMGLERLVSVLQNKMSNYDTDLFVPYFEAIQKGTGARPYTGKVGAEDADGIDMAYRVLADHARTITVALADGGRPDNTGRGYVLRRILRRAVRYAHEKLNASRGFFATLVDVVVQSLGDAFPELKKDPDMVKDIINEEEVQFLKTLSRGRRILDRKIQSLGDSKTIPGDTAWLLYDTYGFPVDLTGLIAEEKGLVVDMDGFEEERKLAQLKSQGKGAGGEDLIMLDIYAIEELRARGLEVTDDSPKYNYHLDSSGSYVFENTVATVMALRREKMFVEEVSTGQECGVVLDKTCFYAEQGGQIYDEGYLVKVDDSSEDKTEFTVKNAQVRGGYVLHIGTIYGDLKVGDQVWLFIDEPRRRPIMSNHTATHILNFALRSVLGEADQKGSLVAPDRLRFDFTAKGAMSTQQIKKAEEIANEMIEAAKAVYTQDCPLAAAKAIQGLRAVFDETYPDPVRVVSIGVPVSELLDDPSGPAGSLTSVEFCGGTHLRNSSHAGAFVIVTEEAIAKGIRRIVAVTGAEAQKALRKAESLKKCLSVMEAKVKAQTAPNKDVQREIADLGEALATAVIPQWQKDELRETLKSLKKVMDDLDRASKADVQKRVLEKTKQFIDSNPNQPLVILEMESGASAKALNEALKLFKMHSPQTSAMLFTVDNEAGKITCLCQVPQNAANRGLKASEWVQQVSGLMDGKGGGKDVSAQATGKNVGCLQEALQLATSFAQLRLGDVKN

Structure (SMILES) | isoTOP-ABPP ratio P21980_C277 ([1]; 200 μM, insitu, 231) | isoTOP-ABPP ratio P12268_C140 ([2]; 200 μM, insitu, 231) | isoTOP-ABPP ratio P49588_C773 ([5]; 200 μM, insitu, 231) | isoTOP-ABPP ratio Q9UMS0_C213 ([3]; 200 μM, insitu, 231) | isoTOP-ABPP ratio Q15233_C145 ([4]; 200 μM, insitu, 231) | isoTOP-ABPP ratio P12268_C331 ([2]; 200 μM, insitu, 231) | other results
COc1ccc2c(c1)CCCN2C(=O)CCl [compound 2] |  |  |  |  |  |  | isoTOP-ABPP reactivity P21980_C277 TGM2 ([1]; 200 μM, insitu, 231): 0.7; isoTOP-ABPP reactivity P12268_C140 IMPDH2 ([2]; 200 μM, insitu, 231): 1.3; isoTOP-ABPP reactivity P12268_C331 IMPDH2 ([2]; 200 μM, insitu, 231): 12.1; isoTOP-ABPP reactivity Q9UMS0_C213 NFU1 ([3]; 200 μM, insitu, 231): 7.4
COc1ccc(C2CC(c3cccs3)=NN2C(=O)CCl)cc1 (stereo not drawn) [compound 4] |  |  |  |  |  |  | isoTOP-ABPP reactivity P21980_C277 TGM2 ([1]; 100 μM in situ 231): 0.5; isoTOP-ABPP reactivity Q15233_C145 NONO ([4]; 100 μM in situ 231): 1.6; isoTOP-ABPP reactivity P12268_C140 IMPDH2 ([2]; 100 μM in situ 231): 1.0; isoTOP-ABPP reactivity P12268_C331 IMPDH2 ([2]; 100 μM in situ 231): 4.6; isoTOP-ABPP reactivity P49588_C773 AARS ([5]; 100 μM in situ 231): 1.3; isoTOP-ABPP reactivity Q9UMS0_C213 NFU1 ([3]; 100 μM in situ 231): 4.4
COc1cc2c(cc1OC)CN(C(=O)CCl)CC2 [compound 8] |  |  |  |  |  |  | isoTOP-ABPP reactivity P21980_C277 TGM2 ([1]; 200 μM, insitu, 231): 0.7; isoTOP-ABPP reactivity Q15233_C145 NONO ([4]; 200 μM, insitu, 231): 12.0; isoTOP-ABPP reactivity P12268_C140 IMPDH2 ([2]; 200 μM, insitu, 231): 0.9; isoTOP-ABPP reactivity P49588_C773 AARS ([5]; 200 μM, insitu, 231): 1.5
O=C(CCl)N1CCC(Cc2ccccc2)CC1 [compound 9] |  |  |  |  |  |  | isoTOP-ABPP reactivity P21980_C277 TGM2 ([1]; 200 μM, insitu, 231): 2.3; isoTOP-ABPP reactivity Q15233_C145 NONO ([4]; 200 μM, insitu, 231): 1.4; isoTOP-ABPP reactivity P12268_C140 IMPDH2 ([2]; 200 μM, insitu, 231): 1.2; isoTOP-ABPP reactivity P12268_C331 IMPDH2 ([2]; 200 μM, insitu, 231): 1.3; isoTOP-ABPP reactivity P49588_C773 AARS ([5]; 200 μM, insitu, 231): 1.5
Cn1cc(S(=O)(=O)N2CCOCC2)cc1C(=O)NC(=O)CCl [compound 11] |  |  |  |  |  |  | isoTOP-ABPP ratio P21980_C277 ([1]; 100 μM in situ 231): 0.6; isoTOP-ABPP ratio Q15233_C145 ([4]; 100 μM in situ 231): 1.2; isoTOP-ABPP ratio P12268_C140 ([2]; 100 μM in situ 231): 0.6; isoTOP-ABPP ratio P12268_C331 ([2]; 100 μM in situ 231): 1.0; isoTOP-ABPP ratio P49588_C773 ([5]; 100 μM in situ 231): 0.9
O=C(CCl)NCCc1c[nH]c2ccccc12 [compound 13] | 0.8 | 0.7 | 0.8 | 1.6 | 1.0 |  | isoTOP-ABPP ratio Q15233_C145 ([4]; 200 μM, insitu, ramos): 1.1; isoTOP-ABPP ratio P12268_C331 ([2]; 200 μM, insitu, ramos): 1.4; isoTOP-ABPP ratio P49588_C773 ([5]; 200 μM, insitu, ramos): 1.1
CC(C)CCOCCNC(=O)CCl [compound 27] | 0.6 | 0.5 | 0.6 | 1.3 | 1.2 | 0.7 | 
COc1ccccc1OCCNC(=O)CCl [compound 28] | 0.4 | 0.6 |  |  | 1.1 | 0.8 | 
O=C(CCl)N1CCN(CC(=O)N2CCOCC2)CC1 [compound 29] |  |  |  |  |  |  | isoTOP-ABPP ratio P12268_C140 ([2]; 200 μM, insitu, ramos): 1.6; isoTOP-ABPP ratio P12268_C331 ([2]; 200 μM, insitu, ramos): 1.3; isoTOP-ABPP ratio P49588_C773 ([5]; 200 μM, insitu, ramos): 1.1; isoTOP-ABPP ratio Q9UMS0_C213 ([3]; 200 μM, insitu, ramos): 2.0
C=CC(=O)N(Cc1cccnc1)c1cc(C(F)(F)F)cc(C(F)(F)F)c1 [compound 31] |  | 0.6 |  | 1.5 | 0.7 | 1.0 | isoTOP-ABPP ratio Q15233_C145 ([4]; 200 μM, insitu, ramos): 0.8; isoTOP-ABPP ratio P12268_C140 ([2]; 200 μM, insitu, ramos): 1.0; isoTOP-ABPP ratio P12268_C331 ([2]; 200 μM, insitu, ramos): 1.1; isoTOP-ABPP ratio P49588_C773 ([5]; 200 μM, insitu, ramos): 1.2
C=CC(=O)Nc1cc(F)c(N2CCN(C(=O)OC(C)(C)C)CC2)c(F)c1 [compound 38] | 1.4 | 1.2 | 0.7 | 3.5 | 0.9 | 1.3 | 
Cc1ccc(C=C(C#N)C(=O)NCCN2CCOCC2)cc1 [compound 41] | 0.6 | 0.7 | 0.7 | 0.9 | 1.1 | 0.8 | 
CC1CCc2ccccc2N1C(=O)CCl (stereo not drawn) [compound 45] | 1.1 | 1.9 | 10.1 | 7.1 | 3.7 | 4.1 | 
O=C(CCl)Nc1cccc2ncccc12 [compound 51] | 1.0 | 1.0 |  | 1.8 | 1.6 |  | 

The next lines start with results.

isoTOP-ABPP ratio P21980_C277 ([1]; 200 μM, insitu, 231) | isoTOP-ABPP ratio P12268_C140 ([2]; 200 μM, insitu, 231) | isoTOP-ABPP ratio P49588_C773 ([5]; 200 μM, insitu, 231) | isoTOP-ABPP ratio Q9UMS0_C213 ([3]; 200 μM, insitu, 231) | isoTOP-ABPP ratio Q15233_C145 ([4]; 200 μM, insitu, 231) | isoTOP-ABPP ratio P12268_C331 ([2]; 200 μM, insitu, 231) | Structure (SMILES) | other results
0.6 | 0.7 | 2.1 | 20.0 |  |  | O=C(CCl)N1CCN(S(=O)(=O)c2ccccc2F)CC1 [compound 10] | isoTOP-ABPP ratio Q15233_C145 ([4]; 200 μM, insitu, ramos): 2.2; isoTOP-ABPP ratio P12268_C140 ([2]; 200 μM, insitu, ramos): 0.9; isoTOP-ABPP ratio P12268_C331 ([2]; 200 μM, insitu, ramos): 2.1; isoTOP-ABPP ratio P49588_C773 ([5]; 200 μM, insitu, ramos): 1.7
0.3 | 1.2 | 0.9 | 20.0 | 2.4 |  | O=C(CCl)NC(=O)NC12CC3CC(CC(C3)C1)C2 [compound 12] | 
0.7 | 0.6 | 1.1 |  |  | 0.8 | O=C(CCl)NC12CC3CC(CC(C3)C1)C2 [compound 21] | 
